Laboratory results from patent US11365215B2, “Method for preventing, improving, or treating inflammatory bowel disease” (Research & Business Foundation Sungkyunkwan University, priority 2015, dated 2022).
“Also recorded” adds a separate entry of the source. Peptide text beside a SMILES is read from it.

Experiments:
[1] = Plasma concentration / pharmacokinetics after intravenous and oral administration; format: in vivo, Male SD rat
Procedure: Compound 1.1 (SEQ ID NO: 2) was administered to a rat intravenously (I.V., 5 mg/kg) or orally (50 mg/kg), and 24 hours after administration, the concentration of compound 1.1 (SEQ ID NO: 2) in plasma was measured (FIG. 18 and FIG. 19).

[2] = target: T1, inflammatory signaling pathway complex mediated by MyD88 and RIP1 (Mus musculus, UniProt P22366+Q60855); assay: Immunoprecipitation/immunoblot of inflammatory signaling pathway complex in LPS-treated BMDM cells; format: cell-based; conditions: 100 pM, 1 nM, 100 nM, then 100 ng/mL LPS
T1 construct: endogenous in cells; host or cells: bone-marrow-derived macrophage (BMDM) cells
Procedure: Bone-marrow-derived macrophage (BMDM) cells were individually pretreated with compound 1.1 (SEQ ID NO: 2), reference compound 1 (SEQ ID NO: 16), and smaducin-6 at various concentrations of 100 pM, 1 nM, and 100 nM, and then further treated with 100 ng/mL of LPS.

[3] = tested on: MAPK signaling pathway proteins (ERK1/2, JNK, p38); assay: Western blot of MAPK signaling pathway protein phosphorylation in LPS-treated RAW 246.7 cells; format: cell-based; conditions: 100 nM for 30 minutes
Procedure: RAW 246.7 macrophage cells were pretreated with compound 1.1 (SEQ ID NO: 2), compound 1.2 and reference compound 1 (SEQ ID NO: 16) at a concentration of 100 nM for 30 minutes and then further treated with LPS for 0 hour, 0.5 hour, 1 hour and 2 hours. […] Changes of the concentration upon phosphorylation of each protein were measured by immunoblotting using anti-phosphorylation antibodies.
Specifically, RAW 246.7 macrophage cells were pretreated with DMSO, compound 1.1 (SEQ ID NO: 2) (100 nM), IRAK1/4 inhibitor (25 μM), and smaducin-6 (100 nM) for 30 minutes, and then further treated with LPS (100 ng/ml) for two hours.

[4] = tested on: experimental autoimmune encephalomyelitis; assay: MOG-induced experimental autoimmune encephalomyelitis model; format: in vivo; conditions: EAE mice
Procedure: To confirm the effect of compound 1.1 (SEQ ID NO: 2) on multiple sclerosis, mice (10 weeks old, female) were sensitized with MOG35-55/[…] and PTX and an experimental autoimmune encephalomyelitis mouse model was obtained. Experimental methods were described in Oncotarget, Vol. 7 (2016), No. 13, 15382-15393, which is incorporated herein by reference.
As reference group, 10000 unit of Interferon-beta was hypodermically injected for 25 days, once every other day. Clinical score were measured and presented.

[5] = tested on: inflammatory signaling pathway protein complex mediated by MyD88 or RIP1; assay: Immunoprecipitation of inflammatory signaling pathway protein complex in LPS-treated RAW264.7 cells; format: cell-based; conditions: pretreated, then LPS
Excerpt: Specifically, using antibodies corresponding to proteins which relate to the formation of Toll-like receptors (TLRs) signaling pathway protein complex (for example, IRAK1, TRAF6, MyD88, RIP1 and Pellino-1), disruption of the formation of inflammatory signaling pathway protein complexes was affirmed by immunoprecipitation. As reference control, a relative amount of expression of β-actin from the total cell lysate was compared and presented using Western blot.
RAW264.7 macrophage cells were individually retreated with compound 1.1 (SEQ ID NO: 2) and compound 1.2, and smaducin-6, and further treated with LPS. These RAW264.7 macrophage cells were collected, lysed in a lysis butter (PBS containing 0.5% Triton X-100, 20 mM HEPES (pH 7.4), 150 mM NaCl, 12.5 mM β-glycerol phosphate, 1.5 mM MgCl2, 10 mM NaF, 2 mM DTT, 1 mM Na3O4V, 2 mM EGTA, and 1 mM Protease Inhibitor (PMSF)), and centrifuged at 13000 rpm for 10 minutes. For immunoprecipitation assays, the supernatant was incubated at 4° C. for 12 hours, with protein-A agarose beads and the antibodies corresponding to the above proteins, and the beads were subsequently washed three times with the lysis buffer. The immunoprecipitated substances were dissociated from the beads with addition of 2× sample buffer, and were boiled. The prepared samples were loaded on SDS-polyacrylamide gel (FIG. 7).

[6] = tested on: ARPE-19 cells (Nox-4, VEGF, VEGFR1, VEGFR2, Ang1, Ang2, Tie-2, EPO, EPOR); assay: Western blot of angiogenesis related factors in high-glucose ARPE-19 cells; format: cell-based, human; conditions: 30 mM glucose 48 hours, 10 nM and 50 nM
Procedure: ARPE-19 cells were treated with 5.5 mM of glucose as reference control. For experiment group, the ARPE-19 cells were treated with 30 mM of glucose for 48 hours to induce high blood glucose condition, and simultaneously treated with DMSO, compound 1.1 (SEQ ID NO: 2) (10 nM), and compound 1.1 (SEQ ID NO: 2) (50 nM). Changes in expression of Nox-4, VEGF, VEGFR1, VEGFR2, Ang1, Ang2, Tie-2, EPO, and EPOR proteins were measured by Western blot analysis.

[7] = tested on: VEGF; assay: qRT-PCR of VEGF in high-glucose HRMEC cells; format: cell-based; conditions: 30 mM glucose 48 hours, 10 nM and 50 nM
Procedure: In addition, HRMEC cells were treated with 5.5 mM of glucose for reference group. For experiment group, the HRMEC cells were treated with 30 mM of glucose for 48 hours to induce high blood glucose condition, and simultaneously treated with DMSO, compound 1.1 (SEQ ID NO: 2) (10 nM), and compound 1.1 (SEQ ID NO: 2) (50 nM). Changes in expression of Nox-4, VEGF, VEGFR1, VEGFR2, Ang1, Ang2, Tie-2, EPO, and EPOR proteins were quantitatively measured by qRT-PCR (quantitative RT-PCR). Expression of VEGF precursor as stimulating factor of new blood vessel was reduced by treatment with compound 1.1 (SEQ ID NO: 2) (FIG. 25C).

[8] = tested on: BRE (BMP6 signaling); assay: BRE-Luc reporter assay in Raw 264.7 cells treated with BMP6; format: cell-based; conditions: 100 ng/mL BMP6 two hours
Procedure: Specifically, 5×NF-κB-Luc reporter plasmid, SBE-Luc reporter plasmid, and BRE-Luc reporter plasmid were individually transfected into Raw 264.7 macrophage cells. After 24 hours, the cells transfected with the NF-κB-Luc reporter plasmid were treated with 100 ng/mL of LPS, the cells transfected with the SBE-Luc reporter plasmid were treated with 5 ng/mL of TFG-β1, and the cells transfected with the BRE-Luc reporter plasmid were treated with 100 ng/mL of BMP6 for two hours.

[9] = plasma, iv, Male SD rat, single dose 5 mg/kg (i.v.)

T1 sequence (P22366 whole entry): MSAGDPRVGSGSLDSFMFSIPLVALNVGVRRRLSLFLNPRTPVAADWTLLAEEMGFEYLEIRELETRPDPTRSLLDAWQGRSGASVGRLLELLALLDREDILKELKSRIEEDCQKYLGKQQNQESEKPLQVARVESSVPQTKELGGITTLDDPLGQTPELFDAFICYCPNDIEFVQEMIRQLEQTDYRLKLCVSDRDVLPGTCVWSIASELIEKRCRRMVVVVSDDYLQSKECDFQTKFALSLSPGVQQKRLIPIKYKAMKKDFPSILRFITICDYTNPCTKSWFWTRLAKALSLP
T1 sequence (Q60855 whole entry): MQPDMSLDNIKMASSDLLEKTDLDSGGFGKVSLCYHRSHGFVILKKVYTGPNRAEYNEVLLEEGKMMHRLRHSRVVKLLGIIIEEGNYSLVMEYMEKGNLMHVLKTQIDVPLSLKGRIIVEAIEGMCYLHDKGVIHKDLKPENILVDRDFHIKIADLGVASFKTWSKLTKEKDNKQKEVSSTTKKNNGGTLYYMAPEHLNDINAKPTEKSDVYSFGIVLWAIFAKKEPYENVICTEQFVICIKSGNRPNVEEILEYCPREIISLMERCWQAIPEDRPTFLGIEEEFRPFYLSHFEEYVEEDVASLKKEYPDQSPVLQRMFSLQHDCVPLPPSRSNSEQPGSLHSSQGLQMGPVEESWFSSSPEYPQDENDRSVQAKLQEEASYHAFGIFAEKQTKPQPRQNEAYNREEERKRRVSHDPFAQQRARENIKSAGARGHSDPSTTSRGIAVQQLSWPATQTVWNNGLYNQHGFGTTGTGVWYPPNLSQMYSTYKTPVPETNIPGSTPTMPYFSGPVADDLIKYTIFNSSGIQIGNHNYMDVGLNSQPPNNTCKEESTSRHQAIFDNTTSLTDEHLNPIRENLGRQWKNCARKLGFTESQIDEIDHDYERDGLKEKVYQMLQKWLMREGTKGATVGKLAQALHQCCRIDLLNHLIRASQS

Q: What does the source list for CCCCCCCCCCCCCCCC(=O)N1CCC[C@H]1C(=O)N1CCC[C@H]1C(=O)NCC(=O)N[C@@H](Cc1ccc(O)cc1)C(=O)O [compound 1.1, (S)-3-(4-hydroxyphenyl)-2-(2-((S)-1-((S)-1-palmitoylpyrrolidine-2-carbonyl)pyrrolidine-2-carboxamido)acetamido)propanoic acid] (HELM PEPTIDE1{[CCCCCCCCCCCCCCCC(=O)[*:2]].P.P.G.Y}$$$$V2.0)?
A: AUC(0-t) [1, 9]: 2140 ng·h/mL; Cmax [1, 9]: 6020 ng/mL; Tmax [1, 9]: 4.8 min; clearance [1, 9]: 45 mL/min/kg; Vd ([1]; plasma, iv, Male SD rat, single dose 5 mg/kg (i.v.), read-out: Vss): 5.4 ± 1 L/kg; Tmax ([1]; plasma, po, Male SD rat, single dose 50 mg/kg (p.o.)): 0 min; time within which the concentration decreased to 1/100 of the initial concentration ([1]; rat, intravenous 5 mg/kg): 1 to 2 h; concentration detected in blood ([1]; rat, intravenous 5 mg/kg, within 8 hours from the administration): very low concentration; detection in blood ([1]; rat, oral 50 mg/kg, after 30 minutes from the oral administration): not detected; formation of inflammatory signaling pathway complex mediated by MyD88 and RIP1 [2]: further disrupted in an increasing dose dependent manner; phosphorylation of the MAPK signaling pathway proteins (ERK1/2, JNK, p38) ([3]; LPS 0, 0.5, 1 and 2 hours): did not inhibit phosphorylation; MAPK signaling pathway / phosphorylation of ERK, JNK, p38 ([3]; LPS 100 ng/ml two hours): neither suppressed MAPK signaling pathway nor inhibited phosphorylation of the proteins; changes in body weights ([4]; compared to the EAE disease model group): did not have reduced weight; clinical score / treatment effect ([4]; hypodermic 1 mg/kg and 40 mg/kg every other day for 25 days, vs interferon-beta 10000 unit): effective in the treatment for multiple sclerosis; also recorded: the same or greater treatment effect and safety; formation of inflammatory signaling pathway protein complex mediated by MyD88 or RIP1 [5]: disrupted; expression of Ang1 and Tie-2 [6]: increased according to increased concentration; expression of Nox4, VEGF, VEGFR1,2, Ang2, EPO and EPOR [6]: reduced; expression of VEGF precursor [7]: reduced; activation of BRE induced by BMP6 treatment [8]: not inhibited
